Experiments:
Format in all cases: biochemical
Settings in all cases: 10 µM compound; mean ± SD
HSD17B1 = molecular target: T1, HSD17B1 (Homo sapiens, UniProt P14061); experiment: HSD17B1 inhibition assay (estrone to oestradiol)
T1 construct: GST (own knowledge: pGEX vectors encode N-terminal GST); made in house; host or cells: E. coli BL21 DE3 Codon Plus RP
T1 sequence (P14061 1-328): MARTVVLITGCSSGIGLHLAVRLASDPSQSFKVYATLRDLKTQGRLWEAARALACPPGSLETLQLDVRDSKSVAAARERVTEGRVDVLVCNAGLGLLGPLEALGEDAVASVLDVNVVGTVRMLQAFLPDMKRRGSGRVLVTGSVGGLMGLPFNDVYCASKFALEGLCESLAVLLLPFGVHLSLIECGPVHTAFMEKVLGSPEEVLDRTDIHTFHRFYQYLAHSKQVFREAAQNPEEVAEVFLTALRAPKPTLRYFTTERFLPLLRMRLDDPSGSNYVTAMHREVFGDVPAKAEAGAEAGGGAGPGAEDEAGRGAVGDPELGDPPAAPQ
Text: (§1) For enzymatic assays and inhibitor testing, all enzymes were cloned into bacterial or mammalian expression vectors. AKR1C3 and the human hydroxysteroid dehydrogenases HSD17B1, HSD17B2, HSD17B4 (SDR domain), HSD17B7, and HSD17B10 were cloned into a pGEX vector as described in [71, 72]. The coding sequences for AKR1C1, AKR1C2, and AKR1C4 were cloned by Gateway technology into the pcDNA3-N-MycDest vector according to the manufacturer’s instructions (Life Technologies, Carlsbad, CA, USA). The p11 plasmid coding for HSD17B14 (S205 variant) was a gift from Udo Opperman SGC Oxford, UK. For assays with HSD17B3, HEK293 cells stably expressing HSD17B3 were used. Enzymes were expressed in E. coli BL21 DE3 or E. coli BL21 DE3 Codon Plus RP (Stratagene, San Diego, CA, USA) or in HEK293 cells as described in [71, 72, 73]. Bacterial and cell pellets were stored at −20 °C and −80 °C, respectively, until use.
(§2) Inhibition assays were carried out as described in [71, 74]. […] For a detailed assay setup, see Supplementary Table S6. The incubation at 37 °C was stopped with 0.21 M ascorbic acid in methanol:acetic acid 99:1 (v:v) after the time needed to convert approximately 30% of the substrate in a control assay with 1% DMSO, without inhibitor candidate. Substrates and products were extracted from the reaction mixture by solid-phase extraction using C18 cartridges (Phenomenex, Aschaffenburg, Germany) and separated by RP–HPLC in a Beckman–Coulter HPLC Gold system, using the Luna 5 µm C18(2), 125 × 4.0 mm column (Phenomenex). The mobile phases used were H2O:ACN (57:43 (v:v); for assays of estrone (E1) to oestradiol (E2), E2 to E1, and ∆4-androstene-3,17-dione to testosterone conversion), H2O:ACN (49:51 (v:v); for assays of progesterone to 20α-hydroxyprogesterone conversion), and H2O:MeOH (35:65 (v:v) for assays of dihydrotestosterone (DHT) to 3α-androstanediol conversion) at a flow rate of 1 mL/min. Radioactivity was detected by online scintillation counting by using a radioactivity monitor (LB506D, Berthold Technologies, Bad Wildbad, Germany). Conversion of substrates to products was determined by integration of the peak area of the substrate and product peaks in percent. For calculation of inhibition, the conversion of control assay (assay without inhibitor) was set to 0% inhibition. All assays were run in triplicates, and mean values ± SD are reported.
(§3) Table S6: Activity assay setup […]
(§4) E1: estrone; E2: 17β-estradiol, A: Δ4-androstene-3,17-dione; T: testosterone, P: progesterone, 20αOHP: 20α-hydroxyprogesterone, DHT: dihydrotestosterone, 3α-Adiol: 3α-androstanediol, NaPi: 100 mM Na-phosphate buffer; PI: C0mplete protease inhibitor (Roche);. E.coli - Expression in E.coli BL21 DE3 Codon Plus RP except E.coli BL21 DE3 […]
(§5) application to antiparasitic and natural product synthesis. Eur J Org Chem […]
(§6) Synthesis of Xanthohumol analogues and discovery of potent thioredoxin reductase inhibitor as potential anticancer agent. J Med Chem 2015, 58,

HSD17B2 = molecular target: T2, HSD17B2 (Homo sapiens, UniProt P37059); experiment: HSD17B2 inhibition assay (oestradiol to estrone)
T2 construct: GST (own knowledge: pGEX vectors encode N-terminal GST); made in house; host or cells: E. coli BL21 DE3 Codon Plus RP
T2 sequence (P37059 1-387): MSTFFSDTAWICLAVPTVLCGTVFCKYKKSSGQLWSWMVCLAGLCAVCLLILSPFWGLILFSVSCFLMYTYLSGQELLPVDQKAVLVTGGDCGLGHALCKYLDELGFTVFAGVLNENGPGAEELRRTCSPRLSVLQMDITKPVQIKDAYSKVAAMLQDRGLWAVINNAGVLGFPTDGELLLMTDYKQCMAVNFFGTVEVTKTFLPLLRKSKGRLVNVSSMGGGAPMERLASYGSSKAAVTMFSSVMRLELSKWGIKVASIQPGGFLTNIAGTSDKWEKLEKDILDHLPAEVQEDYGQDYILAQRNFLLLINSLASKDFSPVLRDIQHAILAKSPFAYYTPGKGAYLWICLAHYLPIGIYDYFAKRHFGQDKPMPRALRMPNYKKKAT
Text: as §1, §2, §3, §4, §5, §6

HSD17B10 = molecular target: T3, HSD17B10 (Homo sapiens, UniProt Q99714); experiment: HSD17B10 inhibition assay (oestradiol to estrone)
T3 construct: GST (own knowledge: pGEX vectors encode N-terminal GST); made in house; host or cells: E. coli BL21 DE3 Codon Plus RP
T3 sequence (Q99714 1-261): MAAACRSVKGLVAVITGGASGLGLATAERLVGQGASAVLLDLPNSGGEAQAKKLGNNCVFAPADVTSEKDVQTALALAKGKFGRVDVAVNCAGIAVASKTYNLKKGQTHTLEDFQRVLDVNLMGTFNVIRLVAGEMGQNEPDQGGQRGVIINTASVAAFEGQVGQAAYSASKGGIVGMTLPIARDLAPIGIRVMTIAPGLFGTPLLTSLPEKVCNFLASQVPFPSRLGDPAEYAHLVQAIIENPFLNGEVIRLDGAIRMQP
Text: as §1, §2, §3, §4, §5, §6

| Compound | Inhibition of HSD17B1 at 10 µM in % (HSD17B1) [%] | Inhibition of HSD17B2 at 10 µM in % (HSD17B2) [%] | Inhibition of HSD17B10 at 10 µM in % (HSD17B10) [%] | inhibition at 10 µM (HSD17B1) [%] | inhibition at 10 µM (HSD17B2) [%] | inhibition at 10 µM (HSD17B10) [%] |
| --- | --- | --- | --- | --- | --- | --- |
| Cc1ccc(/C=C/C(=O)c2c(O)cc(O)cc2O)cc1 [Compound 21] | 42.8 ± 9.1 | 44.2 ± 4.7 | 8.0 ± 6.5 | – | – | – |
| COc1ccc(/C=C/C(=O)c2c(O)cc(O)cc2OC)cc1 [Compound 18] | 46.5 ± 8.8 | 10.4 ± 1.6 | -0.5 ± 6.5 | – | – | – |
| Cc1cccc(/C=C/C(=O)c2c(O)cc(O)cc2O)c1 [Compound 20] | 51.8 ± 5.1 | 61.0 ± 0.9 | -2.5 ± 0.7 | – | – | – |
| COc1ccc(/C=C/C(=O)c2c(O)cc(O)cc2O)cc1 [Compound 19] | 42.3 ± 5.3 | 29.6 ± 3.7 | 2.2 ± 2.6 | – | – | – |
| O=C(/C=C/c1ccc(Cl)cc1Cl)c1c(O)cc(O)cc1O [Compound 23, 2,4-dichloro-2′,4′,6′-trihydroxychalcone] | – | – | – | 53.3 | 88.8 | 5.2 ± 3.8 |
| COc1cc(O)cc(O)c1C(=O)/C=C/c1ccc(Cl)cc1Cl [Compound 25] | – | 12.7 ± 2.3 | -0.5 ± 7.3 | – | – | – |

Reference: article PMC8876231, “Analogues of Natural Chalcones as Efficient Inhibitors of AKR1C3” (Metabolites, 2022)
